Data on 3 substances can be found in patent publication US7563886B2, “Nucleoside releasing functional unit through oxidation and process for producing oligonucleotide containing thereof” (Japan Science and Technology Agency, priority 2003, dated 2009).

Series [1] can be described thus: Photooxidation of single-stranded oligonucleotide, irradiation at 366 nm in the presence of riboflavin. The format is physicochemical. The note with it: single-stranded ODN, irradiated at 366 nm in the presence of riboflavin. The source says:
The inventors conducted photooxidization of the oligonucleotide (7) containing benzoyl-^edaG (^Bz-edaG), for example, 5′-d(TATAAT^Bz-edaGTAATAT)-3′.
The single-stranded oligonucleotide (ODN) 5′-d(TATAAT^edaGTAATAT)-3′ was irradiated at 366 nm in the presence of riboflavin.

The nature of series [2]: Oxidation with sodium hexachloroiridate(IV). The note with it: in 15 minutes.
Series [3] can be described thus: Measurement of oxidation potential (E1/2). Format: physicochemical. The note with it: vs. NHE; 100 mM LiClO4 solution, room temperature. As for the experimental part: The oxidation potential (E1/2) of benzoyl-^edaG was measured in 100 mM LiClO4 solution at room temperature by ALS electrochemical analyzer model 660-A. The scanning speed was 100 mV/sec. A glass carbon electrode was used as a sample electrode; a platinum wire as a counter electrode; and SCE as a reference electrode.

Turning to 5′-d(TATAAT^Bz-edaGTAATAT)-3′, the t1/2 of decomposition in series [1] is 6.2 min. Besides, the “decomposed at the site of the modified edaG” value in series [2] is given as 57%. 5′-d(TATAAT^edaGTAATAT)-3′: in series [1], the t1/2 of decomposition came out at 6.2 min. benzoyl-^edaG [^Bz-edaG]: the “oxidation potential (E1/2)” value in series [3] turned out to be 0.59 V.
